The source of these data is ChEMBL document CHEMBL1156218, “The development and validation of a novel virtual screening cascade protocol to identify potential serotonin 5-HT(7)R antagonists” (Bioorg Med Chem Lett, 2010).

The target in test [1] is T1, 5-hydroxytryptamine receptor 7 (Homo sapiens, UniProt P34969). Kind of test: Displacement of [3H]5CT from 5HT7 receptor. For orientation: Loss of bound radioactivity is the signal in a displacement assay; it reports binding, not function.
The target in test [2] is T1, 5-hydroxytryptamine receptor 7. Nature of the test: Displacement of [3H]5CT from 5HT7 receptor at 0.1 uM.
Test [3] concerns the target T2, 5-hydroxytryptamine receptor 1A (Homo sapiens, UniProt P08908).
T2 sequence (P08908 whole entry): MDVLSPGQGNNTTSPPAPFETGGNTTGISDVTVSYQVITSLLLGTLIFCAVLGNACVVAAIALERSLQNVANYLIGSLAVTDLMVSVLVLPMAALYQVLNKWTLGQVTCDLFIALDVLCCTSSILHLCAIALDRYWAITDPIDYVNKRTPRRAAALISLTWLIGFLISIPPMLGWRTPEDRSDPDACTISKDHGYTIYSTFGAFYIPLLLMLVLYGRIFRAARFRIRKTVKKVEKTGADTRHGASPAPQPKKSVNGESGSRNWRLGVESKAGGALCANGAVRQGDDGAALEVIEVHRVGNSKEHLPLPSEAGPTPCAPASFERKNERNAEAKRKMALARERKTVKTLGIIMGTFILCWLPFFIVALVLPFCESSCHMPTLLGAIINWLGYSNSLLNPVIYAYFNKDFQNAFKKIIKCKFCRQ
Kind of test: Binding affinity at 5HT1A receptor.

Test [4] has as its target T1, 5-hydroxytryptamine receptor 7. Kind of test: Displacement of [3H]5CT from 5HT7 receptor at 1 uM.

T1 sequence (P34969 whole entry): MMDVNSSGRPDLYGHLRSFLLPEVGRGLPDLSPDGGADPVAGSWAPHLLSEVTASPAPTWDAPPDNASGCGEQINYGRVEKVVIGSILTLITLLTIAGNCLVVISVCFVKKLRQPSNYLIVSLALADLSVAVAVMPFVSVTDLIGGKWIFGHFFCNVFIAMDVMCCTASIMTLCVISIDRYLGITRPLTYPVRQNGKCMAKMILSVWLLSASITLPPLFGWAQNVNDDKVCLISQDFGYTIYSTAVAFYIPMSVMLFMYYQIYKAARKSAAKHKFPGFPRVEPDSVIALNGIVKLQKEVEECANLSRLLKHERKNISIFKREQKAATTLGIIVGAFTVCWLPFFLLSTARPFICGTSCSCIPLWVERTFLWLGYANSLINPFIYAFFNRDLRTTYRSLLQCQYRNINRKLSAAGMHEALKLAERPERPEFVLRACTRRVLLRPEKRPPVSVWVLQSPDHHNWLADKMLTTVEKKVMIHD

For `O=C1Nc2cccc3c2[C@]1(CCCCN1CC=C(c2ccccc2)CC1)CCC3`, the Ki in test [1] (read-out: pKi (converted)) was 2.14 nM.
As for `OC(CNCC1COc2ccccc2O1)COc1ccccc1F` (centres undefined), the Activity amounted to 29% in test [2] and 75% in test [4]. In addition, the Ki in test [3] is 8 nM; in test [1] (read-out: Ki) it was 197 nM.
On the same counts, the results for `OC(CNCC1COc2ccccc2O1)COCc1ccccc1Cl` (centres undefined) are 23%, 67%, 36 nM and 265 nM.
